Experimental data: patent US5989198A, “Use of capillary electrophoresis to determine glomerular filtration rate using iothalamate” (Mayo Foundation for Medical Education and Research, priority 1997, dated 1999)
Like-named read-outs stand apart in the source and are kept apart here.

What was measured:
[1] = GFR by capillary electrophoresis of non-isotopic (cold) iothalamate meglumine, timed urine and average of 2 plasma samples after subcutaneous injection; type: in vivo, human; details: for mean GFR: capillary electrophoresis
Procedure: Prior to the test, patients were given 3 drops of a saturated solution of potassium iodide in 20 mis of water to prevent thyroid uptake of the small amount of free ^125 I-iothalamate and to protect patients from radiation exposure to the thyroid. They were also given a single subcutaneous injection of 0.5 mls of iothalamate meglumine (Conray®) (300 mg) diluted 1:1 with distilled water. Patients who professed an allergy to iodine were not included in this study, nor were patients who had been given an angiographic dye in the previous 24 hours.
On the day of the appointment, the patient ate nothing for 4 hours preceding the test (diabetics 2 hours) and drank 4 glasses of water in the hour preceding the test. They were also instructed not to void within 45 minutes of their appointment time. Patients were given oral hydration of 200 mls/per hour throughout the test.
Prior to injection, urine (U0) and blood plasma (P0) samples were obtained to assess for drug interferences. After subcutaneous injection of the two different GFR markers, a 45-minute equilibration period allowed blood levels to peak and become stable or fall as previously described for 125I subcutaneous iothalamate clearances by N. T. Ott et al., Mayo Clin. Proc., 50, 664 (1975), for ^125 I-iothalamate. This sampling method was adapted from studies reported by Israelit et al. for ^125 I-iothalamate, in Kid. […] After the 45 minute equilibration period, 7 ml of blood (P1) and a urine sample (UE) were collected and time (T0) was recorded. […] Bladder emptying was assessed by monitoring with a Diagnostic Ultrasound bladder scanner (Model No. 2500). […]
The patient was moved to a waiting room and returned to the laboratory after 45 to 60 minutes when the urge to void became apparent. Second blood (P2) and urine (U1) samples were collected, urine volume was recorded, and bladder emptying monitored. Adequacy of the test was confirmed if the bladder was empty (<10 ml or <10% of voided volume on scanner readout), and a minimum of 100 mls of urine was voided during the test. The timed urine (U1) and bloods (P1 and P2) were analyzed by CE. […]

[2] = cited from earlier work
[3] = urine diluted with 5 mM borate; cited from earlier work

SMILES	mean GFR ([1]; initial patient group, before vortexing of ultrafiltrate) [mls/min/1.73 M^2]	range of GFR's over which CE and isotope methods correlated ([1]; initial patients (one hundred), s.c. injection)	mean GFR ([1]; second group of 31 patients, ultrafiltrate vortexed) [mls/min]	GFR - Range of Normal ([2]; AGE 18-22) [ml/min/1.73 m^2]	GFR - Range of Normal ([2]; AGE 23-27) [ml/min/1.73 m^2]	GFR - Range of Normal ([2]; AGE 28-32) [ml/min/1.73 m^2]	GFR - Range of Normal ([2]; AGE 33-37) [ml/min/1.73 m^2]	GFR - Range of Normal ([2]; AGE 38-42) [ml/min/1.73 m^2]	GFR - Range of Normal ([2]; AGE 43-47) [ml/min/1.73 m^2]	GFR - Range of Normal ([2]; AGE 48-52) [ml/min/1.73 m^2]	GFR - Range of Normal ([2]; AGE 53-57) [ml/min/1.73 m^2]	GFR - Range of Normal ([2]; AGE 58-62) [ml/min/1.73 m^2]	GFR - Range of Normal ([2]; AGE >62) [ml/min/1.73 m^2]	sample stability, refrigerated [3]
CNC(=O)c1c(I)c(NC(C)=O)c(I)c(C(=O)O)c1I [iothalamate meglumine, 1-deoxy-1-(methylamino)-D-glucitol-5-acetamido-2,4,6,-triiodo-N-methylisophthalamate]	58	9-103 mls/min/1.73 M^2	62	–	–	–	–	–	–	–	–	–	–	–
CNC(=O)c1c(I)c(NC(C)=O)c(I)c(C(=O)O)c1I [Iothalamate]	–	–	–	> 90	> 88	> 86	> 84	> 82	> 80	> 78	> 75	> 73	> 70	at least 2 weeks
